Target: T1, 14-3-3γ/ERRγ complex (Homo sapiens, UniProt P61981+P62508)
T1 construct: made in house; host or cells: E. coli NiCo21 (DE3)
Assay: Differential scanning fluorimetry (DSF)
Format: binding
Settings: 5 μM 14-3-3γ, 200 μM compound, relative to DMSO; for ΔTm at 200 µM: read-out: increase in 14-3-3γ melting temperature (ΔTm)
Method: We screened the apo-14-3-3γ, the binary 14-3-3γ/ERRγ (10 eq.) complex, and the ternary complex of 14-3-3γ, the ERRγ phosphopeptide, and compounds 1 and 3–10 (Figure 2c and Figures S4 and S5). The DSF data corroborated the enhanced stabilization observed in the FA data, with molecular locks 5 and 10 eliciting 14-3-3γ melting temperature increases of 4.7 ± 0.2 and 6.0 ± 0.3 °C, respectively (Figure 2c).
Figure S4. Differential Scanning Fluorimetry. Raw melting curves (a-c, g-i) and derivatives of these melting curves (d-f, j-l) of 14-3-3γ (5 µM) with ERRγ (25 µM) incubated with either DMSO (black) or 200 µM compound 1-10.
(1 picture or pasted object on this page, not shown here)
Figure S5. Differential Scanning Fluorimetry. Raw melting curves (a-c) and derivatives of these melting curves (d-f) of 14-3-3γ (5 µM) with ERRγ (25 µM) incubated with either DMSO (black) or 200 µM compound 1-10. (g) […]
Differential Scanning Fluorimetry (DSF)
Different Scanning Fluorimetry (DSF) assays were performed using 40 µL samples containing 5 µM 14-3-3γ, 50 µM ERRγ pS179 9-mer peptide, 200 µM compound (or 1% DMSO) and 5x ProteoOrange (Lumiprobe, 5000x stock in DMSO) in 10 mM Hepes, 150 mM NaCl, 50 µM TCEP (pH 8.0). The samples were heated from 35 °C to 79 °C at a rate of 0.3 °C per 15 s in a CFX96 Touch Real-Time PCR Detection System (Bio-Rad). Fluorescence intensity was determined using excitation 470/40 nm and emission 570/20 nm filters. Based on these melting curves, the negative derivative melting curve is obtained from which the melting temperature Tm was determined. ΔTm values represent the differences in melting temperature relative to the DMSO control. All described melting temperatures are based on three independent experiments from which the average and standard deviations were determined using excel. […]
Washing steps were repeated three more times. […] Fluorescence was measured using the Tecan SPARK plate reader at room temperature with an excitation wavelength of 485 nm and an emission wavelength of 535 nm. Furthermore, fluorescence anisotropy of each sample was measured using the Tecan Infinite F500 plate reader at room temperature (lex: 485 ± 20 nm; lem: 535 ± 25 nm; mirror: Dichroic 510; flashes: 20; integration time: 50 ms; settle time: 0 ms; gain: 50; and Z-position: calculated from well) to determine whether all 14 -3-3γ was captured by the magnetic beads (should results in low anisotropy values in samp les after capturing in comparison to samples […]

T1 sequence (P61981 whole entry, other chains not shown): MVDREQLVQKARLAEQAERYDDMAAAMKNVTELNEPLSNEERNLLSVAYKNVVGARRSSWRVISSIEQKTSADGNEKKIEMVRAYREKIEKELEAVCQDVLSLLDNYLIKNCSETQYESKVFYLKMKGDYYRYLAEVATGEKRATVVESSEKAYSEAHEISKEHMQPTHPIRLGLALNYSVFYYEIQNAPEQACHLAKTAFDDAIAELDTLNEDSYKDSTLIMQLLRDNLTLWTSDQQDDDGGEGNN

| SMILES | ΔTm at 200 µM (ERRγ 10 eq.) [°C] | other results |
| --- | --- | --- |
| CN(C)CCSSCCN(C)C(=O)c1cccc(F)c1 [compound 1, reference compound] | – | decrease in melting temperature (ERRγ): 2.6 °C |
| CN(C)CCNC(=O)c1ccc(C=O)c(F)c1 [compound 3] | – | increase in 14-3-3γ melting temperature (ΔTm) (ERRγ 10 eq.): no significant change |
| CN(C)CCSSCCN(C)C(=O)c1ccc(C=O)c(F)c1 [compound 5] | 4.7 ± 0.2 | – |
| CN(C)CCSSCCN(C)C(=O)c1cc(Br)cc(C=O)c1 [compound 10] | 6 ± 0.3 | – |

— publication PMC10064330, “Reversible Dual-Covalent Molecular Locking of the 14-3-3/ERRγ Protein–Protein Interaction as a Molecular Glue Drug Discovery Approach” (Journal of the American Chemical Society, 2023)
